Data on 17 compounds can be found in patent US9163018B2, “Method of treatment of age-related macular degeneration (AMD)” (Prana Biotechnology Limited, priority 2006, dated 2015).

For one series, the target named is T1, Aβ 1-42 (Homo sapiens, UniProt P05067).
T1 construct: The reaction solutions contained Aβ 1-42 at concentrations
Nature of the series: Fluorometric H2O2 assay (inhibition of Abeta H2O2 production). The format is biochemical. To be noted: concentration required to inhibit 50% of Abeta H2O2 production; read-out: H2O2 IC50. As to the method: Assay 1. Fluorometric H2O2 Assay
A fluorometric assay was used to test the ability of a test compound to inhibit hydrogen peroxide generation by Aβ in the presence of copper based on dichlorofluoroscein diacetate (DCF; Molecular Probes, Eugene Oreg.). The DCF solution (5 mM) in 100% dimethyl sulphoxide (previously purged with argon for 2 hr at 20° C.) was deacetylated in the presence of 0.25M NaOH for 30 min and neutralized at pH 7.4 to a final concentration of 1 mM. Horseradish peroxidase (HRP) stock solution was prepared to 1 μM at pH 7.4. The reactions were carried out in PBS, pH 7.4 in a 96 well plate (total volume=250 μl/well). […] The reaction mixture was incubated at 37 C for 60 min. […] H2O2 concentration may be established by comparing fluorescence with the H2O2 standards, Inhibition of Aβ H2O2 production was assayed by including a given concentration of test compound(s) in the test wells.

Series [1] concerns the target T2, Abeta:Zn (25:50 μM) Synthetic Aggregations (Homo sapiens, UniProt P05067).
T2 construct: PB Compound Mediated Dissolution of Aggregated Abeta 1-42; purchased Keck Laboratory, Yale University School of Medicine
Nature of the series: Disaggregation of Abeta:Zn synthetic aggregates (ThT fluorescence). The format is biochemical. To be noted: for Disaggregation % Aggregate reduction at 5 μM: 5 μM test compound; for EC50: Abeta:Zn 25:50 μM aggregates. As to the method:
PB Compound Mediated Dissolution of Aggregated Abeta 1-42
Abeta1-42, is available from the Keck Laboratory, Yale University School of Medicine. PBS (pH 6.6): Sigma Cat# D-8662. Zn(ZnCl2): BDH Cat#100884E. (Dissolved in water in 1 mM concentration) DMSO: Ajax Cat#2225. Thioflavin T: Sigma Cat# T-3516. (Dissolved in water in 1 mM concentration)
By way of example of an amyloid composition, Abeta is dissolved in distilled water and peptide concentration is assessed by measured absorption at 214 nm in UV spectrometer. An aggregation reactive mixture (per one concentration of one testing compound) is set us as follows: Abeta: 25 μM, ZnCl2 50 μM, ThT 50 μM, PBS to make up to 500 μl. The tube is wrapped with foil and incubated at 37 degrees by rotation for 24 hours. A serial dilution of each test compound is made up in DMSO, for example: 100 μM, 500 μM, 1000 μM, 2500 μM and 5000 μM. The final concentrations are 1, 5, 10, 25 and 50 μM, 5 μl of each of these compounds is placed in a centrifuge tube and 5 μl of DMSO is added to both negative and positive control tubes. 495 μl of aggregates (after 24 hours incubation) is added to the centrifuge tube. The negative control is PBS plus ZnCl2 and ThT and DMSO. The positive control is aggregates plus DMSO. The tubes are incubated at 37 degrees for further 2 hours with rotation. Samples are measured for ThT fluorescence using an LS55 (Perkin Elmer) fluorimeter in a cuvette (500 μl volume). The excitation wavelength is 450 nm and the emission wavelength is 480 nm. Data are analyzed using graph pad prism program. The tested compounds included so called “PB” compounds.

In series [2] the test system is M17 human neuroblastoma cells. Nature of the series: Cytotoxicity, M17 human neuroblastoma cells. The format is cell-based. To be noted: for Cytotox (% viable) M17 cells at 1 μM: 1 μM test compound; for Cytotox (% viable) M17 cells at 10 μM: 10 μM test compound. As to the method: (§1) Assay 3. MTS Assay for Cell Viability
(§2) Cell viability is determined using the MTS assay. Culture medium is replaced with fresh neurobasal medium plus B27 supplements minus antioxidants. 1/10th volume MTS solution (Cell Titre 96 Aqueous One, Promega Corporation) and incubated at 37° C., 2 hrs. 200 microliter aliquots are measured with a spectrophotometer at 560 nm.

Series [3] concerns primary cortical neuronal cultured cells. Nature of the series: Test compound cytotoxicity, MTS assay, primary cortical neuronal cultures. Format: cell-based, mouse. To be noted: for Cytotox (% viable) Neuronal cells at 1 μM: 1 μM test compound; for Cytotox (% viable) Neuronal cells at 10 μM: 10 μM test compound. As to the method: Assay 2. Neurotoxicity Assays
Primary Cortical Neuronal Cultures
Media was then replaced with Neurobasal media (Invitrogen Life Technologies) and B27 supplements (Invitrogen Life Technologies). Cultures were maintained at 37° C. in 5% CO2. Prior to experimentation, the culture medium was replaced with Neurobasal media and B27 minus antioxidants (Invitrogen Life Technologies).
as §1, §2
Assay 4. Assay for Test Compound Cytoxicity
Neuronal cortical cells were cultured for five days as per Assay 2 in NB media and B27 supplement.
On day six the test compounds were added to the neuronal cell cultures in NB media and B27 supplement minus antioxidants.
Test compounds were dissolved in 100% DMSO to a concentration of 2.5 mM (10 mM if excess compound was weighed out per vial—then diluted to 2.5 mM).
Test compounds were not added directly to cells, instead they were added to a 48 well ‘Drug Plate’ as comprised below:
The Drug Plate was incubated at 37° C. for 15 mins. 200 μl of each well was added in triplicate to the corresponding cell plate. The cell plate was incubated at 37 C, for 4 days.
On completion of the assay, 1/10 volume MTS was added per well of plate (ie 25 μl/250 μl). The plates were incubated at 37 C for 2 hrs, and then absorbance was read at 560 nm.
On the technique in general: Tetrazolium assays rely on reduction of a dye to a coloured formazan, in cell work by metabolically active cells.

T2 sequence (P05067 672-713 limits assumed): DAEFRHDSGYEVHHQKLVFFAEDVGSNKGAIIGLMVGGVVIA
T1 sequence (P05067 672-713 limits assumed): as above

A word on the IC50: it is the midpoint of a concentration-inhibition curve. A word on the EC50: it is the concentration at which the effect is half-maximal. Read a high EC50 as a need for much substance. On to `O=c1c2c(Cl)cc(I)c(O)c2ncn1-c1cccnc1` [PB 1164], for which, at Aβ 1-42, the concentration for half-maximal inhibition (IC50) is 0.24 µM. In series [1], the “Disaggregation % Aggregate reduction at 5 μM” value worked out at 26% and the EC50 is over 20 µM. Further, in series [2], the “Cytotox (% viable) M17 cells at 1 μM” value worked out at 112% and the “Cytotox (% viable) M17 cells at 10 μM” value is on record as 111%.
With `Oc1ccccc1-c1cn2ccccc2n1` [PB 1173], the IC50 at Aβ 1-42 is over 20 µM. Besides, in series [1], the “Disaggregation % Aggregate reduction at 5 μM” value was determined as 10% and the EC50 was over 20 µM.
For the compound `O=c1c2ccc(I)c(O)c2ncn1-c1ccc(F)cc1` [PB 1162], the IC50 on Aβ 1-42 was determined as 3.2 µM. Also, in series [1], the “Disaggregation % Aggregate reduction at 5 μM” value is on record as 52% and the EC50 came out at 4.7 µM. Further, in series [2], the “Cytotox (% viable) M17 cells at 1 μM” value came to 93.9% and the “Cytotox (% viable) M17 cells at 10 μM” value was 36.5%.
In the case of `Fc1ccc(NCc2cccc3cccnc23)cc1` [PB 1195], the IC50 at Aβ 1-42 is over 10 µM. Besides, in series [1], the “Disaggregation % Aggregate reduction at 5 μM” value was 19.9% and the concentration for a half-maximal effect (EC50) was over 20 µM.
Take `Br.C/C=C/Cn1cnc2c(O)c(Cl)cc(Cl)c2c1=O` [PB 1126]: in series [1], the “Disaggregation % Aggregate reduction at 5 μM” value is recorded as 69% and the EC50 worked out at 3.7 µM.
For the compound `CCN(CC)CCn1cnc2c(O)c(I)ccc2c1=O` [PB 1163], the half-maximal inhibitory concentration (IC50) at Aβ 1-42 was 0.29 µM. In addition, in series [1], the “Disaggregation % Aggregate reduction at 5 μM” value was found to be 43.3% and the EC50 worked out at 11 µM. In addition, in series [2], the “Cytotox (% viable) M17 cells at 1 μM” value amounted to 106.5% and the “Cytotox (% viable) M17 cells at 10 μM” value was found to be 41.4%.
In the case of `CCC(C)Cn1cnc2c(O)cccc2c1=O` (stereo not drawn) [PB 1184], the half-inhibitory concentration (IC50) on Aβ 1-42 came out at 0.54 µM. In addition, in series [1], the “Disaggregation % Aggregate reduction at 5 μM” value is 49% and the EC50 worked out at 5.27 µM. In series [2], the “Cytotox (% viable) M17 cells at 1 μM” value turned out to be 102.7% and the “Cytotox (% viable) M17 cells at 10 μM” value is on record as 47.2%.
Take `O=c1c2ccc(I)c(O)c2ncn1Cc1cccc(Cn2cnc3c(O)c(I)ccc3c2=O)n1` [PB 1155]: the 50% inhibitory concentration (IC50) on Aβ 1-42 is 0.31 µM. Also, in series [1], the “Disaggregation % Aggregate reduction at 5 μM” value amounted to 59% and the EC50 came to 3.9 µM.
Consider `O=C(Nc1nc2ccc(F)cc2s1)c1cnc2c(O)cccn2c1=O` [PB 1174], for which, at Aβ 1-42, the half-maximal inhibitory concentration (IC50) was 0.96 µM. In series [1], the “Disaggregation % Aggregate reduction at 5 μM” value came to 22% and the half-maximal effective concentration (EC50) was 14.7 µM. In series [2], the “Cytotox (% viable) M17 cells at 1 μM” value was found to be 60.1% and the “Cytotox (% viable) M17 cells at 10 μM” value was found to be 34.2%.
As for `O=c1c2c(Cl)ccc(O)c2ncn1Cc1ccccn1` [PB 1133], the IC50 at Aβ 1-42 came to 0.79 µM. In series [1], the “Disaggregation % Aggregate reduction at 5 μM” value is 22% and the 50% effective concentration (EC50) was over 20 µM.
For the compound `CN(C)c1ccc(-c2cc(Cl)c3cccnc3c2O)cc1` [PB 851], in series [3], the “Cytotox (% viable) Neuronal cells at 1 μM” value amounted to 94% and the “Cytotox (% viable) Neuronal cells at 10 μM” value is 85%.
With `COc1ccc(NCc2cccc3cccnc23)cc1` [PB 1194], at Aβ 1-42, the IC50 was over 10 µM. Besides, in series [1], the “Disaggregation % Aggregate reduction at 5 μM” value was 21.5% and the EC50 is over 20 µM.
The like results for `c1ccc(-c2ccccn2)nc1` [PB 898] were, in that order, 0.23 µM, 32% and over 20 µM.
Taken in the same sequence, the figures for `O=S(=O)(O)c1ccc(-c2ccnc3c2ccc2c(-c4ccc(S(=O)(=O)O)cc4)ccnc23)cc1` [PB 68] were over 10 µM, 44% and 8.5 µM.
Taken in the same sequence, the figures for `CCn1cnc2c(O)c(I)cc(I)c2c1=O` [PB 1169] were 0.31 µM, 64% and 1.44 µM.
With `Oc1cccc2sc(Cc3ccccc3)nc12` [PB 1191], the IC50 at Aβ 1-42 was over 10 µM. Also, in series [1], the “Disaggregation % Aggregate reduction at 5 μM” value is 10% and the 50% effective concentration (EC50) amounted to 6.89 µM.
Regarding `Br.CC(Br)CCn1cnc2c(O)c(Cl)cc(Cl)c2c1=O` (stereo not drawn) [PB 1114], in series [1], the “Disaggregation % Aggregate reduction at 5 μM” value is on record as 19.2% and the EC50 is over 20 µM. Besides, in series [3], the “Cytotox (% viable) Neuronal cells at 1 μM” value is on record as 101% and the “Cytotox (% viable) Neuronal cells at 10 μM” value worked out at 73%.
